By IC50 is commonly meant the midpoint of a concentration-inhibition curve.

Bounds are passed on as bounds.

Results on 39 molecules are retold here after US9670212B2, “Inhibitors of PI3K-delta and methods of their use and manufacture” (Exelixis, Inc., priority 2010, dated 2017).

Chain of PI3K delta (O00329 whole entry): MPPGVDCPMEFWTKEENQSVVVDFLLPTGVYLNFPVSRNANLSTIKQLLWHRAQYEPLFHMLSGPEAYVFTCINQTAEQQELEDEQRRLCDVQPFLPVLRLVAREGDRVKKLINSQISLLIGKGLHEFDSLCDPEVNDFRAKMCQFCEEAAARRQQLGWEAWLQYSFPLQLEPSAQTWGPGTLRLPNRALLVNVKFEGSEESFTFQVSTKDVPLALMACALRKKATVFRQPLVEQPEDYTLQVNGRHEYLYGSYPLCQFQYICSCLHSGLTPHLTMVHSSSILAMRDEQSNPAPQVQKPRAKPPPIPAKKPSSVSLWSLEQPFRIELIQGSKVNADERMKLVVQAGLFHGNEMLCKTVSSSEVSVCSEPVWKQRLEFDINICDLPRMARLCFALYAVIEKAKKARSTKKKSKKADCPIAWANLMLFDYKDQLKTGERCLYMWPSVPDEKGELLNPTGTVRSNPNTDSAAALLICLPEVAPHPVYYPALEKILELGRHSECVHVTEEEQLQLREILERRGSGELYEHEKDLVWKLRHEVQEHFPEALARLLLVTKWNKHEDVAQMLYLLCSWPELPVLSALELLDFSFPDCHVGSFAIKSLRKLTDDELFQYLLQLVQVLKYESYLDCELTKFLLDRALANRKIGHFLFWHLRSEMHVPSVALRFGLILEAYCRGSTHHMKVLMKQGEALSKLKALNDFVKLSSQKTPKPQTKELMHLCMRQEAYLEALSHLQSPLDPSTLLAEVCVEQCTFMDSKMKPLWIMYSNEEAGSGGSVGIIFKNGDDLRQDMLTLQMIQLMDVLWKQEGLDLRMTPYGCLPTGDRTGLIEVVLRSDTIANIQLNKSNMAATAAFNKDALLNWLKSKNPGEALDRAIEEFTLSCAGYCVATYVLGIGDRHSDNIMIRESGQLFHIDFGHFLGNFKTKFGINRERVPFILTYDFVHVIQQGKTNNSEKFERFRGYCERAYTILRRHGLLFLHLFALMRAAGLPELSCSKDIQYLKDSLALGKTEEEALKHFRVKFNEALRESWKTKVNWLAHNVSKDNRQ
Chain of PI3K delta (P27986 whole entry partner): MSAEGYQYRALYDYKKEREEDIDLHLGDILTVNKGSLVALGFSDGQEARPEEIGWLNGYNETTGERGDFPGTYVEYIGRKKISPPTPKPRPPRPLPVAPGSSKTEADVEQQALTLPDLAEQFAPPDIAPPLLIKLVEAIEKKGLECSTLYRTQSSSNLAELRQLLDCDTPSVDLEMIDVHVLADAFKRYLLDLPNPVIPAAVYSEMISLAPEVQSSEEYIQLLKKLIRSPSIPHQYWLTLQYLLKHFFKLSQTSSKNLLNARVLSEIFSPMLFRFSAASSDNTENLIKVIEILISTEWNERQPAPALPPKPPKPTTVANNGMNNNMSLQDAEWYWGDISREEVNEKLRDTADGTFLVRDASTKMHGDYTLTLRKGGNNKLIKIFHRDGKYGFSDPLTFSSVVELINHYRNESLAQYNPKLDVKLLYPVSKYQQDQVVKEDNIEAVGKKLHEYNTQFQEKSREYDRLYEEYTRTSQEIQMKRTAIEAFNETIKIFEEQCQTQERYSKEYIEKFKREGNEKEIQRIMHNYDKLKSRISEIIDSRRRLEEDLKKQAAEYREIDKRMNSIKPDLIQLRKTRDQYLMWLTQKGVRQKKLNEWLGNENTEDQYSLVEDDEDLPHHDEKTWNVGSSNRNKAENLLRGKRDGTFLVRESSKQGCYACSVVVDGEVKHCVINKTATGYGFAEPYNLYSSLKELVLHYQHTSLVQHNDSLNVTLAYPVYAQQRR

In the experiment the target is PI3K delta (Homo sapiens (Human), UniProt O00329). The experiment is described as follows: Luciferase-coupled chemiluminescence kinase assay (KinaseGlo, ATP consumption). It counts as biochemical. The gist of the method:
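Kinase, compound and ATP (at or below KM) reacted 2 h at ambient temperature; remaining ATP detected by KinaseGlo luciferase chemiluminescence as percent ATP consumed. 10-point dose-response, curves fitted to give IC50.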
Regarding `Cc1cccc2cc(CNC(=O)c3nccnc3N)c(N3CCC(N(C)C)CC3)nc12` [Compound 127, 3-amino-N-({2-[4-(dimethylamino)piperidin-1-yl]-8-methylquinolin-3-yl}methyl)pyrazine-2-carboxamide], the concentration for half-maximal inhibition (IC50) fell in the range of 500 to 1500 nM.

On to `Cc1cccc2cc(CNC(=O)c3nccnc3N)c(N(C)CCN(C)C)nc12` [Compound 128, 3-amino-N-[(2-{[2-(dimethylamino)ethyl](methyl)amino}-8-methylquinolin-3-yl)methyl]pyrazine-2-carboxamide], for which the IC50 is less than 50 nM.

For the molecule `Cc1cccc2cc(CNC(=O)c3nccnc3N)c(NCCN(C)C)nc12` [Compound 129, 3-amino-N-[(2-{[2-(dimethylamino)ethyl]amino}-8-methylquinolin-3-yl)methyl]pyrazine-2-carboxamide], the IC50 is 500 to 1500 nM.

The molecule `CNCCN(C)c1nc2c(C)cccc2cc1CNC(=O)c1nccnc1N` [Compound 130, 3-amino-N-[(8-methyl-2-{methyl[2-(methylamino)ethyl]amino}quinolin-3-yl)methyl]pyrazine-2-carboxamide] returned an IC50 of 250 to 500 nM.

`Cc1cccc2cc(CNC(=O)c3nccnc3N)c(N3CCNCC3)nc12` [Compound 131, 3-amino-N-[(8-methyl-2-piperazin-1-ylquinolin-3-yl)methyl]pyrazine-2-carboxamide] had an IC50 of 500 to 1500 nM.

Regarding `Cc1ccccc1-c1cc2ccccc2nc1CNc1cncnc1N` [Compound 132, N-5-{[3-(2-methylphenyl)quinolin-2-yl]methyl}pyrimidin-4,5-diamine], the IC50 was 500 to 1500 nM.

Consider `CNCCCN(C)c1nc2c(C)cccc2cc1CNC(=O)c1nccnc1N` [Compound 133, 3-amino-N-[(8-methyl-2-{methyl[3-(methylamino)propyl]amino}quinolin-3-yl)methyl]pyrazine-2-carboxamide], for which the IC50 fell in the range of 50 to 250 nM.

`Cc1ccccc1-c1nc2c(C)cccc2cc1Cn1nc(I)c2c(N)ncnc21` [Compound 134, 3-iodo-1-{[8-methyl-2-(2-methylphenyl)quinolin-3-yl]methyl}-1H-pyrazolo[3,4-d]pyrimidin-4-amine]: the IC50 was less than 50 nM.

`Cc1cccc2cc(CNC(=O)c3nccnc3N)c(N(C)CCCN(C)C(=O)CN(C)C)nc12` [Compound 136, 3-amino-N-({2-[{3-[(N,N-dimethylglycyl)(methyl)amino]propyl}(methyl)amino]-8-methylquinolin-3-yl}methyl)pyrazine-2-carboxamide]: the IC50 was less than 50 nM.

Take `Cc1cccc2cc(CNC(=O)c3nccnc3N)c(N3CCCN(C(=O)CN(C)C)CC3)nc12` [Compound 137, 3-amino-N-({2-[4-(N,N-dimethylglycyl)-1,4-diazepan-1-yl]-8-methylquinolin-3-yl}methyl}pyrazine-2-carboxamide]: the IC50 fell in the range of 250 to 500 nM.

`Cc1cccc2cc(CNC(=O)c3nccnc3N)c(NCCCN(C)C)nc12` [Compound 138, 3-amino-N-[(2-{[3-(dimethylamino)propyl]amino}-8-methylquinolin-3-yl)methyl]pyrazine-2-carboxamide] yielded an IC50 of 500 to 1500 nM.

For the molecule `Cc1cccc2cc(CNC(=O)c3nccnc3N)c(N3CCCNCC3)nc12` [Compound 139, 3-amino-N-{[2-(1,4-diazepan-1-yl)-8-methylquinolin-3-yl]methyl}pyrazine-2-carboxamide], the IC50 is 250 to 500 nM.

Molecule `Cc1cccc2cc(CNC(=O)c3nccnc3N)c(N3CCCN(C)CC3)nc12` [Compound 140, 3-amino-N-{[8-methyl-2-(4-methyl-1,4-diazepan-1-yl)quinolin-3-yl]methyl}pyrazine-2-carboxamide] showed an IC50 of 250 to 500 nM.

`Cc1ccccc1-c1cc2ccccc2nc1CNc1ncnc2[nH]nc(Br)c12` [Compound 141, 3-bromo-N-{[3-(2-methylphenyl)quinolin-2-yl]methyl}-1H-pyrazolo[3,4-d]primidin-4-amine] registered an IC50 of 500 to 1500 nM.

The molecule `Cc1ccccc1-c1cc2ccccc2nc1CNC(=O)c1nccnc1N` [Compound 142, 3-amino-N-{[3-(2-methylphenyl)quinolin-2-yl]methyl}pyrazine-2-carboxamide] had an IC50 of 500 to 1500 nM.

On to `CC(=O)N1CCN(c2nc3c(C)cccc3cc2CNc2ncnc3[nH]cnc23)CC1` [Compound 143, N-{[2-(4-acetylpiperazin-1-yl)-8-methylquinolin-3-yl]methyl}-9H-purin-6-amine], for which the IC50 is less than 50 nM.

The molecule `CCN1CCN(c2nc3c(C)cccc3cc2CNc2ncnc3[nH]cnc23)CC1` [Compound 144, N-{[2-(4-ethylpiperazin-1-yl)-8-methylquinolin-3-yl]methyl}-9H-purin-6-amine] showed an IC50 of less than 50 nM.

`Cc1ccccc1-c1cc2ccccc2nc1Cn1nc(I)c2c(N)ncnc21` [Compound 145, 3-iodo-1-{[3-(2-methylphenyl)quinolin-2-yl]methyl}-1H-pyrazolo[3,4-d]pyrimidin-4-amine] showed an IC50 of less than 50 nM.

Consider `Cc1cccc2cc(CNc3ncnc4[nH]cnc34)c(N3CCCN(C)CC3)nc12` [Compound 146, N-{[8-methyl-2-(4-methyl-1,4-diazepan-1-yl)quinolin-3-yl]methyl}-9H-purin-6-amine], for which the IC50 was less than 50 nM.

Take `Cc1cccc2cc(CNC(=O)c3nccnc3N)c(N3CCCCC3)nc12` [Compound 147, 3-amino-N-[(8-methyl-2-piperidin-1-ylquinolin-3-yl)methyl]pyrazine-2-carboxamide]: the IC50 fell in the range of 500 to 1500 nM.

Consider `Cc1cccc2cc(CNC(=O)c3nccnc3N)c(-c3ccccc3Cl)nc12` [Compound 148, 3-amino-N-{[2-(2-chlorophenyl)-8-methylquinolin-3-yl]methyl}pyrazine-2-carboxamide], for which the IC50 was in the range of 50 to 250 nM.

Molecule `CNCCN(C)c1nc2c(C)cccc2cc1Cn1cnc2c(N)ncnc21` [Compound 149, N-{3-[(6-amino-9H-purin-9-yl)methyl]-8-methylquinolin-2-yl}-N,N′-dimethylethane-1,2-diamine] yielded an IC50 of less than 50 nM.

Molecule `Cc1cccc2cc(Cn3cnc4c(N)ncnc43)c(N3CC4CC3CN4C)nc12` (stereo not drawn) [Compound 150, 9-{[8-methyl-2-(5-methyl-2,5-diazabicyclo[2.2.1]hept-2-yl)quinolin-3-yl]methyl}-9H-purin-6-amine] displayed an IC50 of 500 to 1500 nM.

`Cc1ccccc1-n1c(CNC(=O)c2nccnc2N2CCOCC2)nc2cccc(C)c2c1=O` [Compound 151] returned an IC50 of 500 to 1500 nM.

`Cc1cccc2cc(C(C)Nc3ncnc4[nH]cnc34)c(-c3ccccc3Cl)nc12` (stereo not drawn) [Compound 152, N-{1-[2-(2-chlorophenyl)-8-methylquinolin-3-yl]ethyl}-9H-purin-6-amine] yielded an IC50 of less than 50 nM.

For the molecule `Cc1cccc2cc(Cn3cnc4c(N)ncnc43)c(NS(C)(=O)=O)nc12` [Compound 153, N-{3-[(6-amino-9H-purin-9-yl)methyl]-8-methylquinolin-2-yl}methanesulfonamide], the IC50 was in the range of 500 to 1500 nM.

Regarding `Cc1cccc2cc(CNc3ncnc4[nH]cnc34)c(-c3ccccc3Cl)nc12` [Compound 154, N-{[2-(2-chlorophenyl)-8-methylquinolin-3-yl]methyl}-9H-purin-6-amine], the IC50 was less than 50 nM.

As to `Cc1ccccc1-c1cc2ccccc2nc1CNc1ncnc2[nH]cnc12` [Compound 155, N-{[3-(2-methylphenyl)quinolin-2-yl]methyl}-9H-purin-6-amine], the IC50 fell in the range of 50 to 250 nM.

With `Cc1cccc2cc(Cn3cnc4c(N)ncnc43)c(NS(=O)(=O)c3ccccc3)nc12` [Compound 156, N-{3-[(6-amino-9H-purin-9-yl)methyl]-8-methylquinolin-2-yl}benzenesulfonamide], the IC50 was in the range of 500 to 1500 nM.

`Cc1ccccc1-n1c(CCN)nc2cccc(C)c2c1=O` [Compound 157, 2-(2-aminoethyl)-5-methyl-3-(2-methylphenyl)quinazolin-4(3H)-one]: the IC50 is 500 to 1500 nM.

`Cc1ccccc1-n1c(CNC(=O)c2nccnc2Cl)nc2cccc(C)c2c1=O` [Compound 159, 3-chloro-N-{[5-methyl-3-(2-methylphenyl)-4-oxo-3,4-dihydroquinazolin-2-yl]methyl}pyrazine-2-carboxamide] displayed an IC50 of 500 to 1500 nM.

`Cc1ccccc1-n1c(CNC(=O)c2nc(Br)cnc2N)nc2cccc(C)c2c1=O` [Compound 160, 3-amino-6-bromo-N-{[5-methyl-3-(2-methylphenyl)-4-oxo-3,4-dihydroquinazolin-2-yl]methyl}pyrazine-2-carboxamide] yielded an IC50 of 500 to 1500 nM.

As to `Cc1ccccc1-n1c(CNC(=O)c2ncccc2N)nc2cccc(C)c2c1=O` [Compound 161, 3-amino-N-{[5-methyl-3-(2-methylphenyl)-4-oxo-3,4-dihydroquinazolin-2-yl]methyl}pyridine-2-carboxamide], the IC50 lay in the range of 500 to 1500 nM.

The molecule `Cc1ccccc1-n1c(Cn2cnc3c(N)ncnc32)nc2ccsc2c1=O` [Compound 162, 2-[(6-amino-9H-purin-9-yl)methyl]-3-(2-methylphenyl)thieno[3,2-d]pyrimidin-4(3H)-one] registered an IC50 of 500 to 1500 nM.

With `Cc1ccccc1-n1c(CSc2ncnc3nc[nH]c23)nc2ccsc2c1=O` [Compound 163, 3-(2-methylphenyl)-2-[(7H-purin-6-ylthio)methyl]thieno[3,2-d]pyrimidin-4(3H)-one], the IC50 fell in the range of 500 to 1500 nM.

Turning to `Cc1cccc2cc(Cn3cnc4c(N)ncnc43)c(NC3CCN(C)CC3)nc12` [Compound 164, 3-[(6-amino-9H-purin-9-yl)methyl]-8-methyl-N-(1-methylpiperidin-4-yl)quinolin-2-amine], the IC50 is 500 to 1500 nM.

As for `Cc1cccc2cc(Cn3cnc4c(N)ncnc43)c(NC3CCOCC3)nc12` [Compound 165, 3-[(6-amino-9H-purin-9-yl)methyl]-8-methyl-N-(tetrahydro-2H-pyran-4-yl)quinolin-2-amine], the IC50 is 500 to 1500 nM.

`CC(=O)N1CCN(c2nc3c(C)cccc3cc2Cn2cnc3c(N)ncnc32)CC1` [Compound 166, 9-{[2-(4-acetylpiperazin-1-yl)-8-methylquinolin-3-yl]methyl}-9H-purin-6-amine] had an IC50 of 50 to 250 nM.

`COCCNc1nc2c(C)cccc2cc1Cn1cnc2c(N)ncnc21` [Compound 167, 3-[(6-amino-9H-purin-9-yl)methyl]-8-methyl-N-[2-(methyloyx)ethyl]quinolin-2-amine] yielded a half-maximal inhibitory concentration (IC50) of 500 to 1500 nM.
